Experimental data taken from PubChem BioAssay (NCI).
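Following 48 hours of exposure in 96-well plates, responses at five concentrations were used to interpolate endpoints linearly. The concentration for 50% growth inhibition is given as GI50. TGI denotes the concentration required for complete inhibition of growth.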

How the values were obtained:
Experiment in all cases: inhibition of tumour cell growth, NCI panel, 48 h
UO-31 renal = tested on: UO-31 renal
786-0 renal = tested on: 786-0 renal
SK-MEL-2 melanoma = tested on: SK-MEL-2 melanoma
SNB-75 CNS = tested on: SNB-75 CNS
M14 melanoma = tested on: M14 melanoma
HT29 colon = tested on: HT29 colon
MALME-3M melanoma = tested on: MALME-3M melanoma
MCF7 breast = tested on: MCF7 breast
RXF 393 renal = tested on: RXF 393 renal
K-562 leukemia = tested on: K-562 leukemia
NCI-H522 lung = tested on: NCI-H522 lung
OVCAR-8 ovarian = tested on: OVCAR-8 ovarian
IGROV1 ovarian = tested on: IGROV1 ovarian
NCI/ADR-RES ovarian = tested on: NCI/ADR-RES ovarian
UACC-62 melanoma = tested on: UACC-62 melanoma
HCC-2998 colon = tested on: HCC-2998 colon
SW-620 colon = tested on: SW-620 colon
DU-145 prostate = tested on: DU-145 prostate
COLO 205 colon = tested on: COLO 205 colon
KM12 colon = tested on: KM12 colon
EKVX NSCLC = tested on: EKVX NSCLC
SF-268 CNS = tested on: SF-268 CNS
SK-OV-3 ovarian = tested on: SK-OV-3 ovarian
SK-MEL-28 melanoma = tested on: SK-MEL-28 melanoma
HL-60(TB) leukemia = tested on: HL-60(TB) leukemia
HOP-92 NSCLC = tested on: HOP-92 NSCLC
MDA-MB-231 breast = tested on: MDA-MB-231 breast
PC-3 prostate = tested on: PC-3 prostate
OVCAR-4 ovarian = tested on: OVCAR-4 ovarian
HCT-116 colon = tested on: HCT-116 colon
NCI-H23 lung = tested on: NCI-H23 lung
HOP-62 NSCLC = tested on: HOP-62 NSCLC
SF-295 CNS = tested on: SF-295 CNS
SN12C renal = tested on: SN12C renal
SF-539 CNS = tested on: SF-539 CNS
MDA-MB-435 = tested on: MDA-MB-435
A498 renal = tested on: A498 renal
SK-MEL-5 melanoma = tested on: SK-MEL-5 melanoma
RPMI-8226 leukemia = tested on: RPMI-8226 leukemia
BT-549 breast = tested on: BT-549 breast
HS 578T breast = tested on: HS 578T breast
ACHN renal = tested on: ACHN renal
T-47D breast = tested on: T-47D breast
OVCAR-5 ovarian = tested on: OVCAR-5 ovarian
NCI-H226 lung = tested on: NCI-H226 lung
SR leukemia = tested on: SR leukemia
HCT-15 colon = tested on: HCT-15 colon
CCRF-CEM leukemia = tested on: CCRF-CEM leukemia
U251 CNS = tested on: U251 CNS
MOLT-4 leukemia = tested on: MOLT-4 leukemia
CAKI-1 renal = tested on: CAKI-1 renal
A549 NSCLC = tested on: A549 NSCLC
SNB-19 CNS = tested on: SNB-19 CNS
NCI-H460 lung = tested on: NCI-H460 lung
TK-10 renal = tested on: TK-10 renal
OVCAR-3 ovarian = tested on: OVCAR-3 ovarian
UACC-257 melanoma = tested on: UACC-257 melanoma
LOX IMVI melanoma = tested on: LOX IMVI melanoma
MDA-N = tested on: MDA-N

Which results are given for `N#C/C(=C\c1ccc[nH]1)c1cc(-c2ccc(Cl)cc2)nn1-c1ccccc1`?
GI50 (UO-31 renal): 3.82 µM; TGI (UO-31 renal): 31 µM; GI50 (786-0 renal): 6.06 µM; TGI (786-0 renal): 27.5 µM; GI50 (SK-MEL-2 melanoma): 8.65 µM; TGI (SK-MEL-2 melanoma): 34.6 µM; GI50 (SNB-75 CNS): 2.29 µM; TGI (SNB-75 CNS): 16 µM; GI50 (M14 melanoma): 4.09 µM; TGI (M14 melanoma): 14.8 µM; GI50 (HT29 colon): 3.31 µM; TGI (HT29 colon): 13 µM; GI50 (MALME-3M melanoma): 3.05 µM; TGI (MALME-3M melanoma): 17.2 µM; GI50 (MCF7 breast): 0.449 µM; TGI (MCF7 breast): 19.7 µM; GI50 (RXF 393 renal): 6.89 µM; TGI (RXF 393 renal): 24.2 µM; GI50 (K-562 leukemia): 3.24 µM; TGI (K-562 leukemia): 10.9 µM; GI50 (NCI-H522 lung): 5.19 µM; TGI (NCI-H522 lung): 29.4 µM; GI50 (OVCAR-8 ovarian): 11.5 µM; TGI (OVCAR-8 ovarian): > 100 µM; GI50 (IGROV1 ovarian): 14 µM; TGI (IGROV1 ovarian): > 95.4 µM; GI50 (NCI/ADR-RES ovarian): 3.93 µM; TGI (NCI/ADR-RES ovarian): > 31.4 µM; GI50 (UACC-62 melanoma): 7.39 µM; TGI (UACC-62 melanoma): 28.2 µM; GI50 (HCC-2998 colon): 3.5 µM; TGI (HCC-2998 colon): 12.4 µM; GI50 (SW-620 colon): 3.75 µM; TGI (SW-620 colon): > 41.8 µM; GI50 (DU-145 prostate): 3.81 µM; TGI (DU-145 prostate): > 40.7 µM; GI50 (COLO 205 colon): 3.16 µM; TGI (COLO 205 colon): 8.17 µM; GI50 (KM12 colon): 2.68 µM; TGI (KM12 colon): 11.6 µM; GI50 (EKVX NSCLC): 2.89 µM; TGI (EKVX NSCLC): > 100 µM; GI50 (SF-268 CNS): 4.05 µM; TGI (SF-268 CNS): 18.3 µM; GI50 (SK-OV-3 ovarian): 7.88 µM; TGI (SK-OV-3 ovarian): 40.2 µM; GI50 (SK-MEL-28 melanoma): 4.57 µM; TGI (SK-MEL-28 melanoma): 17.5 µM; GI50 (HL-60(TB) leukemia): 4.36 µM; TGI (HL-60(TB) leukemia): 29.3 µM; GI50 (HOP-92 NSCLC): 2.54 µM; TGI (HOP-92 NSCLC): 10.2 µM; GI50 (MDA-MB-231 breast): 5.78 µM; TGI (MDA-MB-231 breast): 33 µM; GI50 (PC-3 prostate): 3.12 µM; TGI (PC-3 prostate): 23.1 µM; GI50 (OVCAR-4 ovarian): 1.73 µM; TGI (OVCAR-4 ovarian): > 56.3 µM; GI50 (HCT-116 colon): 3.28 µM; TGI (HCT-116 colon): 12.8 µM; GI50 (NCI-H23 lung): 4.19 µM; TGI (NCI-H23 lung): 22.1 µM; GI50 (HOP-62 NSCLC): 7.63 µM; TGI (HOP-62 NSCLC): 24.2 µM; GI50 (SF-295 CNS): 2.8 µM; TGI (SF-295 CNS): 13 µM; GI50 (SN12C renal): 5.87 µM; TGI (SN12C renal): > 48 µM; GI50 (SF-539 CNS): 6.05 µM; TGI (SF-539 CNS): 18.9 µM; GI50 (MDA-MB-435): 2.7 µM; TGI (MDA-MB-435): 13.2 µM; GI50 (A498 renal): 2.62 µM; TGI (A498 renal): 12.6 µM; GI50 (SK-MEL-5 melanoma): 6.47 µM; TGI (SK-MEL-5 melanoma): 19.4 µM; GI50 (RPMI-8226 leukemia): 2.48 µM; TGI (RPMI-8226 leukemia): 9.77 µM; GI50 (BT-549 breast): 4.72 µM; TGI (BT-549 breast): 15.7 µM; GI50 (HS 578T breast): 2.17 µM; TGI (HS 578T breast): 14.1 µM; GI50 (ACHN renal): 5.55 µM; TGI (ACHN renal): 47.5 µM; GI50 (T-47D breast): 1.56 µM; TGI (T-47D breast): 13.1 µM; GI50 (OVCAR-5 ovarian): 15.7 µM; TGI (OVCAR-5 ovarian): 50.3 µM; GI50 (NCI-H226 lung): 7.71 µM; TGI (NCI-H226 lung): 37.2 µM; GI50 (SR leukemia): 1.97 µM; TGI (SR leukemia): 6.28 µM; GI50 (HCT-15 colon): 5.37 µM; TGI (HCT-15 colon): 25.1 µM; GI50 (CCRF-CEM leukemia): 3.59 µM; TGI (CCRF-CEM leukemia): 22 µM; GI50 (U251 CNS): 7.07 µM; TGI (U251 CNS): 24 µM; GI50 (MOLT-4 leukemia): 2.52 µM; TGI (MOLT-4 leukemia): 8.23 µM; GI50 (CAKI-1 renal): 3.16 µM; TGI (CAKI-1 renal): > 100 µM; GI50 (A549 NSCLC): 6.92 µM; TGI (A549 NSCLC): > 64.7 µM; GI50 (SNB-19 CNS): 9.35 µM; TGI (SNB-19 CNS): > 56.9 µM; GI50 (NCI-H460 lung): 3.43 µM; TGI (NCI-H460 lung): 13.3 µM; GI50 (TK-10 renal): 3.12 µM; TGI (TK-10 renal): 21.1 µM; GI50 (OVCAR-3 ovarian): 2.37 µM; TGI (OVCAR-3 ovarian): 8.69 µM; GI50 (UACC-257 melanoma): 10.9 µM; TGI (UACC-257 melanoma): 35.8 µM; GI50 (LOX IMVI melanoma): 4.9 µM; TGI (LOX IMVI melanoma): 16.8 µM

Which results are given for `CC(=O)C(CN1C(=O)c2ccccc2C1=O)C(C)=O`?
TGI (UO-31 renal): > 100 µM; TGI (786-0 renal): > 100 µM; TGI (SK-MEL-2 melanoma): > 100 µM; TGI (SNB-75 CNS): > 100 µM; TGI (M14 melanoma): > 100 µM; TGI (HT29 colon): > 100 µM; TGI (MCF7 breast): > 100 µM; TGI (RXF 393 renal): 53.8 µM; TGI (K-562 leukemia): > 100 µM; TGI (NCI-H522 lung): > 100 µM; TGI (OVCAR-8 ovarian): > 100 µM; TGI (IGROV1 ovarian): > 100 µM; TGI (UACC-62 melanoma): > 100 µM; TGI (HCC-2998 colon): > 100 µM; TGI (SW-620 colon): > 100 µM; TGI (DU-145 prostate): > 100 µM; TGI (COLO 205 colon): > 100 µM; TGI (EKVX NSCLC): > 100 µM; TGI (SF-268 CNS): > 100 µM; TGI (SK-OV-3 ovarian): > 100 µM; TGI (SK-MEL-28 melanoma): > 100 µM; TGI (HOP-92 NSCLC): > 100 µM; TGI (MDA-MB-231 breast): > 100 µM; TGI (PC-3 prostate): > 100 µM; TGI (OVCAR-4 ovarian): > 100 µM; TGI (HCT-116 colon): > 100 µM; TGI (NCI-H23 lung): > 100 µM; TGI (HOP-62 NSCLC): > 100 µM; TGI (SF-295 CNS): > 100 µM; TGI (SN12C renal): > 100 µM; TGI (SF-539 CNS): > 100 µM; TGI (MDA-MB-435): > 100 µM; TGI (A498 renal): > 100 µM; TGI (SK-MEL-5 melanoma): > 100 µM; TGI (BT-549 breast): > 100 µM; TGI (HS 578T breast): > 100 µM; TGI (ACHN renal): > 100 µM; TGI (T-47D breast): > 100 µM; TGI (OVCAR-5 ovarian): > 100 µM; TGI (MDA-N): > 100 µM; TGI (NCI-H226 lung): > 100 µM; TGI (HCT-15 colon): > 100 µM; TGI (U251 CNS): > 100 µM; TGI (CAKI-1 renal): > 100 µM; TGI (A549 NSCLC): > 100 µM; TGI (SNB-19 CNS): > 100 µM; TGI (NCI-H460 lung): > 100 µM; TGI (TK-10 renal): > 100 µM; TGI (OVCAR-3 ovarian): > 100 µM; TGI (UACC-257 melanoma): > 100 µM
